Results from US11401555B2, “Genetic polymorphisms associated with stroke, methods of detection and uses thereof” (CELERA CORPORATION, priority 2008, dated 2022).

Assay: Stroke statin response (SSR) in the CARE pravastatin trial: pravastatin-treated versus placebo-treated, by SNP genotype
Format: in vivo, human
Conditions: for EVENTS: stroke events in pravastatin arm

## CC[C@H](C)C(=O)O[C@H]1C[C@H](O)C=C2C=C[C@H](C)[C@H](CC[C@@H](O)C[C@@H](O)CC(=O)O)[C@H]21 [pravastatin]
CARE, rs2038366, REC, genotype GT + TT, TOTAL 789
  EVENTS: 38
CARE, rs3213646 EXOD1, DOM, genotype CT + CC, TOTAL 1108
  EVENTS: 51
CARE, rs3213646 EXOD1, GEN, genotype CC, TOTAL 417
  EVENTS: 27
CARE, rs3213646 EXOD1, GEN, genotype CT, TOTAL 691
  EVENTS: 24
CARE, rs3213646 EXOD1, GEN, genotype TT, TOTAL 245
  EVENTS: 13
CARE, rs3213646 EXOD1, REC, genotype CT + TT, TOTAL 936
  EVENTS: 37
CARE, rs3900940 MYH15, DOM, genotype CT + CC, TOTAL 721
  EVENTS: 36
CARE, rs3900940 MYH15, GEN, genotype CC, TOTAL 160
  EVENTS: 13
CARE, rs3900940 MYH15, GEN, genotype CT, TOTAL 561
  EVENTS: 23
CARE, rs3900940 MYH15, GEN, genotype TT, TOTAL 620
  EVENTS: 30
CARE, rs3900940 MYH15, REC, genotype CT + TT, TOTAL 1181
  EVENTS: 53
Pravastatin vs placebo, ENDPT4F1, hCV1463226 rs10890 FXN, GEN, genotype CC
  HR: 0.48
Pravastatin vs placebo, ENDPT4F1, hCV1463226 rs10890 FXN, GEN, genotype TT
  HR: 0.41
Pravastatin vs placebo, ENDPT4F1, hCV1846459 rs4803759, GEN, genotype CC
  HR: 0.66
Pravastatin vs placebo, ENDPT4F1, hCV1846459 rs4803759, GEN, genotype TC
  HR: 0.62
Pravastatin vs placebo, ENDPT4F1, hCV1846459 rs4803759, REC, genotype TC + CC
  HR: 0.64
Pravastatin vs placebo, ENDPT4F1, hCV2442143 rs12544854 ASAH1, DOM, genotype TC + TT, first listing (TOTAL 1070)
  HR: 0.57
Pravastatin vs placebo, ENDPT4F1, hCV2442143 rs12544854 ASAH1, DOM, genotype TC + TT, second listing (TOTAL 1059)
  HR: 0.56
Pravastatin vs placebo, ENDPT4F1, hCV2442143 rs12544854 ASAH1, GEN, genotype TC, first listing (TOTAL 713)
  HR: 0.55
Pravastatin vs placebo, ENDPT4F1, hCV2442143 rs12544854 ASAH1, GEN, genotype TC, second listing (TOTAL 704)
  HR: 0.57
Pravastatin vs placebo, ENDPT4F1, hCV2741051 rs2230806 ABCA1, DOM, genotype TC + TT, first listing (TOTAL 709)
  HR: 0.47
Pravastatin vs placebo, ENDPT4F1, hCV2741051 rs2230806 ABCA1, DOM, genotype TC + TT, second listing (TOTAL 711)
  HR: 0.47
Pravastatin vs placebo, ENDPT4F1, hCV2741051 rs2230806 ABCA1, GEN, genotype TC, first listing (TOTAL 597)
  HR: 0.47
Pravastatin vs placebo, ENDPT4F1, hCV2741051 rs2230806 ABCA1, GEN, genotype TC, second listing (TOTAL 603)
  HR: 0.5
Pravastatin vs placebo, ENDPT4F1, hCV2862873 rs780094 GCKR, DOM, genotype TC + TT
  HR: 0.6
Pravastatin vs placebo, ENDPT4F1, hCV2959482 rs3890182 ABCA1, DOM, genotype AG + AA
  HR: 0.34
Pravastatin vs placebo, ENDPT4F1, hCV2959482 rs3890182 ABCA1, GEN, genotype AG
  HR: 0.34
Pravastatin vs placebo, ENDPT4F1, hCV3216551 rs562338, GEN, genotype GG
  HR: 0.59
Pravastatin vs placebo, ENDPT4F1, hCV8757333 rs1800588 LIPC, DOM, genotype TC + TT
  HR: 0.49
Pravastatin vs placebo, ENDPT4F1, hCV8942032 rs1264352 DDR1, DOM, genotype CG + CC, risk allele C
  HR: 0.41
Pravastatin vs placebo, ENDPT4F1, hCV9296529 rs4358307, GEN, genotype GA
  HR: 0.5
Pravastatin vs placebo, ENDPT4F1, hCV9324316 rs9305020, GEN, genotype TT
  HR: 0.7
Pravastatin vs placebo, ENDPT4F1, hCV9324316 rs9305020, REC, genotype CT + TT
  HR: 0.76
Pravastatin vs placebo, ENDPT4F1, hCV9473891 rs1555173, REC, genotype CT + TT
  HR: 0.75
Pravastatin vs placebo, ENDPT4F1, hCV16164743 rs2928932, GEN, genotype AA
  HR: 0.6
Pravastatin vs placebo, ENDPT4F1, hCV16164743 rs2928932, GEN, genotype CC
  HR: 0.31
Pravastatin vs placebo, ENDPT4F1, hCV22275299 rs28927680 BUD13, GEN, genotype GC
  HR: 0.2
Pravastatin vs placebo, ENDPT4F1, hCV26682080 rs4420638, DOM, genotype GA + GG
  HR: 0.45
Pravastatin vs placebo, ENDPT4F1, hCV26682080 rs4420638, GEN, genotype GA
  HR: 0.5
Pravastatin vs placebo, ENDPT4F1, hCV26682080 rs4420638, GEN, genotype GG
  HR: 0.25
Pravastatin vs placebo, ENDPT4F1, hCV29480044 rs10516433 TSPAN5, GEN, genotype TC
  HR: 0.46
Pravastatin vs placebo, ENDPT4F1, hCV29480044 rs10516433 TSPAN5, REC, genotype TC + CC
  HR: 0.67
Pravastatin vs placebo, ENDPT4F1, hCV29566897 rs10507755, REC, genotype CT + TT
  HR: 0.76
Pravastatin vs placebo, ENDPT4F1, hCV30454150 rs10516434 TSPAN5, GEN, genotype TC
  HR: 0.46
Pravastatin vs placebo, ENDPT4F1, hCV30454150 rs10516434 TSPAN5, REC, genotype TC + CC
  HR: 0.67
Pravastatin vs placebo, ENDPT4F1, hDV77718013, REC, genotype TC + CC
  HR: 0.74
rs1048621 (hCV1619596, SDCBP2), ALL, genotype AA, MODE GEN, ENDPT4F1, pravastatin vs placebo, CARE
  HR: 0.16
rs1048621 (hCV1619596, SDCBP2), ALL, genotype AG + AA, MODE DOM, ENDPT4F1, pravastatin vs placebo, CARE
  HR: 0.69
rs1048621 (hCV1619596, SDCBP2), ALL, genotype AG + GG, MODE REC, ENDPT4F1, pravastatin vs placebo, CARE
  HR: 0.82
rs1048621 (hCV1619596, SDCBP2), ALL, genotype AG, MODE GEN, ENDPT4F1, pravastatin vs placebo, CARE
  HR: 0.89
rs1048621 (hCV1619596, SDCBP2), ALL, genotype GG, MODE GEN, ENDPT4F1, pravastatin vs placebo, CARE
  HR: 0.77
rs1264352 (hCV8942032, DDR1), genotype CC, MODE GEN, ENDPT4F1, pravastatin vs placebo, CARE
  HR: 0.86
rs1264352 (hCV8942032, DDR1), genotype CG + CC, MODE DOM, ENDPT4F1, pravastatin vs placebo, CARE
  HR: 0.41
rs1264352 (hCV8942032, DDR1), genotype CG + GG, MODE REC, ENDPT4F1, pravastatin vs placebo, CARE
  HR: 0.73
rs1264352 (hCV8942032, DDR1), genotype CG, MODE GEN, ENDPT4F1, pravastatin vs placebo, CARE
  HR: 0.39
rs1264352 (hCV8942032, DDR1), genotype GG, MODE GEN, ENDPT4F1, pravastatin vs placebo, CARE
  HR: 0.84
rs2857595 (hCV16134786), ALL, genotype AA, MODE GEN, ENDPT4F1, pravastatin vs placebo, CARE
  HR: 0.23
rs2857595 (hCV16134786), ALL, genotype AG + AA, MODE DOM, ENDPT4F1, pravastatin vs placebo, CARE
  HR: 0.58
rs2857595 (hCV16134786), ALL, genotype AG + GG, MODE REC, ENDPT4F1, pravastatin vs placebo, CARE
  HR: 0.77
rs2857595 (hCV16134786), ALL, genotype AG, MODE GEN, ENDPT4F1, pravastatin vs placebo, CARE
  HR: 0.67
rs2857595 (hCV16134786), ALL, genotype GG, MODE GEN, ENDPT4F1, pravastatin vs placebo, CARE
  HR: 0.8
rs11079160 (hCV32160712), ALL, genotype AA, MODE GEN, ENDPT4F1, pravastatin vs placebo, CARE
  HR: 0.86
rs11079160 (hCV32160712), ALL, genotype TA + AA, MODE REC, ENDPT4F1, pravastatin vs placebo, CARE
  HR: 0.78
rs11079160 (hCV32160712), ALL, genotype TA + TT, MODE DOM, ENDPT4F1, pravastatin vs placebo, CARE
  HR: 0.55
rs11079160 (hCV32160712), ALL, genotype TA, MODE GEN, ENDPT4F1, pravastatin vs placebo, CARE
  HR: 0.62
rs11079160 (hCV32160712), ALL, genotype TT, MODE GEN, ENDPT4F1, pravastatin vs placebo, CARE
  HR: 0.24
rs12762303 (hCV27830265, ALOX5), genotype AA, MODE GEN, ENDPT4F1, pravastatin vs placebo, CARE, first listing (TOTAL 1005)
  HR: 0.84
rs12762303 (hCV27830265, ALOX5), genotype AA, MODE GEN, ENDPT4F1, pravastatin vs placebo, CARE, second listing (TOTAL 1002)
  HR: 0.85
rs12762303 (hCV27830265, ALOX5), genotype GA + AA, MODE REC, ENDPT4F1, pravastatin vs placebo, CARE, first listing (TOTAL 1381)
  HR: 0.73
rs12762303 (hCV27830265, ALOX5), genotype GA + AA, MODE REC, ENDPT4F1, pravastatin vs placebo, CARE, second listing (TOTAL 1377)
  HR: 0.73
rs12762303 (hCV27830265, ALOX5), genotype GA + GG, MODE DOM, ENDPT4F1, pravastatin vs placebo, CARE, first listing (TOTAL 399)
  HR: 0.46
rs12762303 (hCV27830265, ALOX5), genotype GA + GG, MODE DOM, ENDPT4F1, pravastatin vs placebo, CARE, second listing (TOTAL 398)
  HR: 0.46
rs12762303 (hCV27830265, ALOX5), genotype GA, MODE GEN, ENDPT4F1, pravastatin vs placebo, CARE, first listing (TOTAL 376)
  HR: 0.47
rs12762303 (hCV27830265, ALOX5), genotype GA, MODE GEN, ENDPT4F1, pravastatin vs placebo, CARE, second listing (TOTAL 375)
  HR: 0.47
rs12762303 (hCV27830265, ALOX5), genotype GG, MODE GEN, ENDPT4F1, pravastatin vs placebo, CARE, first listing (TOTAL 23)
  HR: 0
rs12762303 (hCV27830265, ALOX5), genotype GG, MODE GEN, ENDPT4F1, pravastatin vs placebo, CARE, second listing (TOTAL 23)
  HR: 0
